Reference: the NIST ThermoML archive (doi:10.1021/je049814b)

Assay: wn = mass fraction of the nth substance listed
Details: Liquid, Coaxial cylinder method

[Br-].[Na+] [sodium bromide] + O
thermal conductivity [W/m/K]
Details	100 kPa	2000 kPa	10000 kPa	40000 kPa
294.3 K, w1 = 0.1	0.58	0.58	0.586	0.596
294.7 K, w1 = 0.38	0.504	0.504	0.512	0.525
296 K, w1 = 0.2	0.56	0.56	0.565	0.575
297.2 K, w1 = 0.3	0.537	0.537	0.541	0.55
319.6 K, w1 = 0.38	0.531	0.531	0.536	0.549
319.9 K, w1 = 0.2	0.595	0.595	0.599	0.609
321.7 K, w1 = 0.1	0.618	0.618	0.624	0.635
323.9 K, w1 = 0.3	0.573	0.573	0.578	0.587
347.2 K, w1 = 0.38	0.56	0.56	0.565	0.578
350.2 K, w1 = 0.2	0.624	0.624	0.628	0.639
354.2 K, w1 = 0.1	0.648	0.648	0.653	0.664
357.7 K, w1 = 0.3	0.601	0.601	0.608	0.617
374.5 K, w1 = 0.38	0.58	0.58	0.589	0.603
377.9 K, w1 = 0.2	0.637	0.637	0.642	0.653
378.6 K, w1 = 0.1	0.659	0.659	0.663	0.674
380.2 K, w1 = 0.3	0.61	0.61	0.617	0.627
396.5 K, w1 = 0.2	0.643	0.643	0.648	0.659
398.7 K, w1 = 0.38	0.585	0.585	0.593	0.609
399.2 K, w1 = 0.1	0.664	0.664	0.669	0.679
401 K, w1 = 0.3	0.615	0.615	0.623	0.633
424.5 K, w1 = 0.38	0.585	0.585	0.593	0.609
426.4 K, w1 = 0.3	0.614	0.614	0.624	0.637
427.5 K, w1 = 0.1	0.664	0.664	0.671	0.682
429.2 K, w1 = 0.2	0.643	0.643	0.649	0.659
450.6 K, w1 = 0.2	0.632	0.632	0.638	0.652
453.7 K, w1 = 0.1	0.652	0.652	0.659	0.672
455 K, w1 = 0.3	0.6	0.6	0.608	0.621
456.7 K, w1 = 0.38	0.572	0.572	0.583	0.6
483.2 K, w1 = 0.2	–	–	0.618	0.634
483.2 K, w1 = 0.38	–	–	0.569	0.59
486.2 K, w1 = 0.1	–	–	0.639	0.66
515.3 K, w1 = 0.1	–	–	0.611	0.634
515.7 K, w1 = 0.38	–	–	0.535	0.565
519.4 K, w1 = 0.2	–	–	0.583	0.601
541.3 K, w1 = 0.38	–	–	0.504	0.539
542.7 K, w1 = 0.1	–	–	0.576	0.604
547.6 K, w1 = 0.2	–	–	0.546	0.571
576.2 K, w1 = 0.2	–	–	0.504	0.535
576.5 K, w1 = 0.38	–	–	0.454	0.494
577.3 K, w1 = 0.1	–	–	0.525	0.566

[Br-].[K+] [potassium bromide] + O
thermal conductivity [W/m/K]
Details	100 kPa	2000 kPa	10000 kPa	40000 kPa
294.7 K, w1 = 0.1	0.578	0.578	0.582	0.592
295.7 K, w1 = 0.3	0.521	0.521	0.525	0.532
296.8 K, w1 = 0.2	0.553	0.553	0.557	0.565
320.9 K, w1 = 0.1	0.612	0.612	0.617	0.628
321.4 K, w1 = 0.3	0.554	0.554	0.559	0.569
325.4 K, w1 = 0.2	0.589	0.589	0.595	0.602
351.2 K, w1 = 0.2	0.616	0.616	0.62	0.629
354.8 K, w1 = 0.1	0.644	0.644	0.65	0.662
357.6 K, w1 = 0.3	0.588	0.588	0.591	0.601
381.3 K, w1 = 0.1	0.661	0.661	0.669	0.682
384.2 K, w1 = 0.3	0.601	0.601	0.605	0.616
387.6 K, w1 = 0.2	0.634	0.634	0.638	0.647
403.2 K, w1 = 0.1	0.661	0.661	0.667	0.683
406.2 K, w1 = 0.2	0.632	0.632	0.638	0.648
409.6 K, w1 = 0.3	0.6	0.6	0.606	0.618
425.9 K, w1 = 0.1	0.657	0.657	0.662	0.681
427.2 K, w1 = 0.3	0.598	0.598	0.604	0.616
431.2 K, w1 = 0.2	0.628	0.628	0.634	0.646
456.9 K, w1 = 0.2	0.616	0.616	0.623	0.635
457.6 K, w1 = 0.1	0.643	0.643	0.65	0.665
463.1 K, w1 = 0.3	0.582	0.582	0.586	0.599
481.3 K, w1 = 0.2	–	–	0.609	0.623
488.2 K, w1 = 0.1	–	–	0.628	0.65
494.2 K, w1 = 0.3	–	–	0.564	0.579
516.3 K, w1 = 0.3	–	–	0.542	0.562
519.3 K, w1 = 0.1	–	–	0.598	0.622
520.6 K, w1 = 0.2	–	–	0.575	0.592
539.7 K, w1 = 0.3	–	–	0.511	0.538
543.2 K, w1 = 0.1	–	–	0.569	0.597
547.6 K, w1 = 0.2	–	–	0.539	0.564
571.3 K, w1 = 0.2	–	–	0.501	0.534
571.9 K, w1 = 0.1	–	–	0.522	0.55
575.6 K, w1 = 0.3	–	–	0.455	0.496
